The record followed here is US5451522A, “Genes encoding and method of expressing an enzyme: phthalyl amidase” (priority 1994, dated 1995).

Assay [1] addresses T1, phthalyl amidase (Xanthobacter agilis, UniProt P0C2Y0).
T1 construct: 42-aa signal peptide removed
Put plainly: Influence of effectors and organic solvents on enzyme activity. The format is biochemical. As to conditions: for remaining activity at 1 % / remaining activity at 5 % / remaining activity at 10 %: 20 min, read-out: % Residual enzyme activity. Here is the method:
A typical reaction mixture consisted of 1 ml total volume and contained 0.1 mM III, 0.1 μM phthalyl amidase in 50 mM potassium phosphate buffer (pH 5.5-9.0) at 32° C. for 20 minutes. The reactions were stopped by the addition of 1 ml methanol. After removal of precipitate by centrifugation, an aliquot of the supernatant fraction (typically 30 μ) was monitored for the beta-lactam nucleus and phthalic acid by HPLC using a Zorbax C8 column (0.46×15 cm; MacMod Analytical Inc., Chadds Ford, Pa.). The two reaction products were eluted by a mobile phase constructed as continuous mixed gradients from (a) 1% ACN (acetonitrile)/0.2% TFA (trifluoroacetic acid) and (b) 80% ACN/0.2% TFA as follows: 1) 0% (b), 3 min; 2) 0-50% (b), 0.5 min; 3) 50-100% (b), 3 min; 4) 100% (b), 2.5 min; 5) 100-0% (b), 0.1 min; and 6) 0% (b), 5 min.
The effect of various agents on the enzymatic activity of phthalyl amidase was determined using standard conditions (see Example 5). All agents were tested at 1 mM final concentration unless otherwise indicated.

In assay [2] the target is T1, phthalyl amidase. Put plainly: Substrate specificity: chemical structure requirements for enzyme activity. The format is biochemical. As to conditions: for Relative Activity: 2.5 μmol compound, 0.3 units enzyme; for suitability as substrate (in words): Tables 10 and 11. On the procedure:
The activity of phthalyl amidase against 25 compounds was determined. The compounds were divided into beta-lactams (Table 9), phthalyl amides (Table 10), and aromatic ring substituted amides (Table 11). Each reaction mixture (1 ml total volume) contained 2.5 μmol of compound and 0.3 units of enzyme (based on the chromogenic substrate) of the preparative scale purified enzyme, in 50 mM phosphate buffer, pH 8.0. The reactions were conducted at 30° C. Samples of the reaction mixture were taken at various times, and methanol (equal volume) was added to stop the reaction. The samples were examined by HPLC to determine the extent of substrate hydrolysis. The amount of compound hydrolyzed was calculated from a standard curve of the test compound. All substrates were stable in buffer at 30° C. and pH 8.0 in the absence of enzyme for 24 hours.

[3] abbreviates: agent at 1 mM final concentration, read-out: % of Control Activity.
The mark [4] stands for this setting: read-out: % of Control Activity.
Setting [5] is: Table 11 aromatic ring substituted amides, XVII = 100.0, pH 8.0, 30° C.
Where [6] appears, read: Table 9 beta-lactams, III = 100, 50 mM phosphate pH 8.0, 30° C.
Setting [7] is: agent at 1 mM final concentration.
[8] abbreviates: 1 mM unless otherwise indicated, iodoacetic acid 10 mM.

Molecules are shown by their SMILES. Entries after “also recorded” stand apart in the source; their conditions may differ. Read-outs that look alike come from different tables or passages of the source.

T1 sequence (P0C2Y0 2-453): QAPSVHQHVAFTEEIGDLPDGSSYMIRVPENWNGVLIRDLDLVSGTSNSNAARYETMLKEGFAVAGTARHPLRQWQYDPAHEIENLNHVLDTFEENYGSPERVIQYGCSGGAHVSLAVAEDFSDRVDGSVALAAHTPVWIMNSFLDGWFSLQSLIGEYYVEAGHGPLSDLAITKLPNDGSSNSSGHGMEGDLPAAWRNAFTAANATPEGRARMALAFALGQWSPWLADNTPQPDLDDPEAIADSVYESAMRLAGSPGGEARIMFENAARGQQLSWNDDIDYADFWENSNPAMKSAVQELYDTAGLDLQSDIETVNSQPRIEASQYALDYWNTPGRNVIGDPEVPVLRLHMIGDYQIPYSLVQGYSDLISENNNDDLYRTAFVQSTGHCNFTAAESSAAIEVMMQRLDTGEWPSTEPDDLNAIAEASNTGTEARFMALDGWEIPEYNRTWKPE

Consider `Nc1nc2c(c(=O)[nH]1)N[C@H](CNc1ccc(C(=O)N[C@@H](CCC(=O)O)C(=O)O)cc1)CN2` [THF, tetrahydrofolate], for which, in assay [1] (setting [3]), the remaining activity at 1000 µM was 100%. Turning to `O=C(O)CI` [Iodoacetate], the “effect on enzyme activity (in words)” value in assay [1] is recorded as “significantly reduced; also recorded: significantly inhibited”. In addition, in assay [1] (setting [4]), the remaining activity at 1000 µM stood at 91% and the remaining activity at 10000 µM was determined as 46%. On to `NC(=O)c1ccc[n+]([C@@H]2O[C@H](COP(=O)([O-])OP(=O)(O)OC[C@H]3O[C@@H](n4cnc5c(N)ncnc54)[C@H](O)[C@@H]3O)[C@@H](O)[C@H]2O)c1` [NAD, nicotinamide adenine nucleotide], for which, in assay [1] (setting [3]), the remaining activity at 1000 µM came out at 101%. For `CCCCCCC(C(=O)O)n1cnc(NC(=O)c2cccc(O)c2)c1` (stereo not drawn) [XXVI], the “Relative Activity” value in assay [2] (setting [5]) was determined as 0. With `CCCCCCC(C(=O)O)n1cnc(NC(=O)c2ccccc2O)c1` (stereo not drawn) [XXV], the “Relative Activity” value in assay [2] (setting [5]) stood at 0. Consider `O=C(O)CN1C(=O)C(NC(=O)c2ccccc2)C1CCc1ccco1` (stereo not drawn) [VI], for which the Relative Activity in assay [2] (setting [6]) was found to be 0. With `O=C(O)CN(CCN(CC(=O)O)CC(=O)O)CC(=O)O` [EDTA], the “effect on enzyme activity (in words)” value in assay [1] is on record as “little or no effect”. Also, the remaining activity at 1000 µM in assay [1] (setting [4]) turned out to be 103%. As for `CCCCCCC(C(=O)O)n1cnc(NC(=O)c2ccccc2C(=O)O)c1` (stereo not drawn) [XIII], in assay [2], the “suitability as substrate (in words)” value is “most active compound found”. For the molecule `CCN1C(=O)C=CC1=O` [NEM, Nethylmaleimide], the remaining activity at 1000 µM in assay [1] (setting [3]) turned out to be 100%. Take `O=C(O)c1cc(SSc2ccc([N+](=O)[O-])c(C(=O)O)c2)ccc1[N+](=O)[O-]` [DTNB, dithionitrobenzoate]: the remaining activity at 1000 µM in assay [1] (setting [3]) worked out at 98%. Take `CCCCCCC(C(=O)O)n1cnc(NC(=O)c2ccc(C(=O)O)cc2)c1` (stereo not drawn) [XXIII]: the “Relative Activity” value in assay [2] (setting [5]) is reported as 0. Besides, the “suitability as substrate (in words)” value in assay [2] is reported as “completely eliminates hydrolytic activity”. For the molecule `[Cl-].[K+]` [KCl], in assay [1] (setting [7]), the “% of Control Activity” value came to 100%. `CCO` [Ethanol]: in assay [1], the remaining activity at 1 % worked out at 99%, the remaining activity at 5 % came out at 85% and the remaining activity at 10 % was found to be 45%.

On to `NC(=O)C1=CN([C@@H]2O[C@H](COP(=O)(O)OP(=O)(O)OC[C@H]3O[C@@H](n4cnc5c(N)ncnc54)[C@H](OP(=O)(O)O)[C@@H]3O)[C@@H](O)[C@H]2O)C=CC1` [NADPH], for which, in assay [1] (setting [3]), the remaining activity at 1000 µM was found to be 99%. As to `CCCCCCC(C(=O)O)n1cnc(NC(=O)c2ccccc2C(=O)O)c1` (stereo not drawn) [XVII], the “Relative Activity” value in assay [2] (setting [5]) was 100.0.

`CC(C)NC(=O)c1ccccc1C(=O)O` [XII]: the “Relative Activity” value in assay [2] (Table 10 phthalyl amides, III = 100.0, 50 mM phosphate pH 8.0, 30° C.) was 9.7. As for `[Cl][Fe]([Cl])[Cl]` [FeCl3], the “% of Control Activity” value in assay [1] (setting [7]) is recorded as 96%.

`CCCCCCC(C(=O)O)n1cnc(NC(=O)c2cccc(O)c2C(=O)O)c1` (stereo not drawn) [XXI]: the “Relative Activity” value in assay [2] (setting [5]) is 1.3. For the same molecule, the “suitability as substrate (in words)” value in assay [2] was “acceptable”. In the case of `CO` [Methanol], the remaining activity at 1 % in assay [1] (solvent 1.0%) came out at 100%. Further, the remaining activity at 5 % in assay [1] (solvent 5.0%) was determined as 90%. In addition, the remaining activity at 10 % in assay [1] (solvent 10.0%) is 69%. Consider `CC(C)(COP(=O)(O)OP(=O)(O)OC[C@H]1O[C@@H](n2cnc3c(N)ncnc32)[C@H](O)[C@@H]1OP(=O)(O)O)[C@@H](O)C(=O)NCCC(=O)NCCS` [CoASH], for which the remaining activity at 1000 µM in assay [1] (setting [3]) worked out at 102%. In the case of `C[S+](C)[O-]` [DMSO, dimethyl sulfoxide], in assay [1] (solvent 1.0%), the remaining activity at 1 % is 101%. The remaining activity at 5 % in assay [1] (solvent 5.0%) was determined as 80%. In addition, the remaining activity at 10 % in assay [1] (solvent 10.0%) came out at 71%. For the molecule `Cc1cc2nc3c(=O)[nH]c(=O)nc-3n(C[C@H](O)[C@H](O)[C@H](O)COP(=O)(O)OP(=O)(O)OC[C@H]3O[C@@H](n4cnc5c(N)ncnc54)[C@H](O)[C@@H]3O)c2cc1C` [FAD, flavin adenine dinucleotide], the remaining activity at 1000 µM in assay [1] (setting [3]) worked out at 101%. As to `[Ca+2].[Cl-].[Cl-]` [CaCl2], the “% of Control Activity” value in assay [1] (setting [7]) was 89%. Take `CCCCCCC(C(=O)O)n1cnc(NC(=O)c2cc(O)cc(O)c2)c1` (stereo not drawn) [XXVII]: in assay [2] (setting [5]), the “Relative Activity” value stood at 0. In the case of `Cc1ncc(COP(=O)(O)O)c(C=O)c1O` [PLP, pyridoxyl5-phosphate], in assay [1] (setting [3]), the remaining activity at 1000 µM is 106%.

`O=C(O)c1cc[c]([Hg][OH])cc1` [p-HMB, parahydroxy mercuric benzoate]: the “effect on enzyme activity (in words)” value in assay [1] (setting [8]) was “significantly reduced; also recorded: significantly inhibited”. In addition, in assay [1] (setting [7]), the “% of Control Activity” value was 65%. As for `CCCCCCC(C(=O)O)n1cnc(NC(=O)c2ncccc2C(=O)O)c1` (stereo not drawn) [Compound XX], the “suitability as substrate (in words)” value in assay [2] is “acceptable”. Take `O=C(O)CN1C(=O)C(NC(=O)Cc2ccccc2)C1CCc1ccco1` (stereo not drawn) [V]: the Relative Activity in assay [2] (setting [6]) stood at 0.

Consider `NC(=O)C1=CN([C@@H]2O[C@H](COP(=O)(O)OP(=O)(O)OC[C@H]3O[C@@H](n4cnc5c(N)ncnc54)[C@H](O)[C@@H]3O)[C@@H](O)[C@H]2O)C=CC1` [NADH], for which, in assay [1] (setting [3]), the remaining activity at 1000 µM came out at 96%. Regarding `CCCCCCC(C(=O)O)n1cnc(NC(=O)c2cccc(C(=O)O)c2)c1` (stereo not drawn) [XXIV], the “Relative Activity” value in assay [2] (setting [5]) is reported as 0. Moreover, in assay [2], the “suitability as substrate (in words)” value is listed as “completely eliminates hydrolytic activity”. As for `c1cnc2c(c1)ccc1cccnc12` [Phenanthroline], in assay [1] (setting [8]), the “effect on enzyme activity (in words)” value is recorded as “little or no effect”. Moreover, in assay [1] (setting [3]), the remaining activity at 1000 µM turned out to be 104%. Turning to `[Cl][Ni][Cl]` [NiCl2], the “% of Control Activity” value in assay [1] (setting [7]) stood at 94%.

Molecule `O=C(O)CN1C(=O)C(NC(=O)COc2ccccc2)C1CCc1ccco1` (stereo not drawn) [IV] returned a Relative Activity in assay [2] (setting [6]) of 0.

As for `[Cl][Cu][Cl]` [CuCl2], the “effect on enzyme activity (in words)” value in assay [1] (1 mM unless otherwise indicated, iodoacetic acid 10 mM, listed as Cu^++) is reported as “significantly inhibited”; in assay [1] (1 mM unless otherwise indicated, iodoacetic acid 10 mM, listed as copper ions), “significantly reduced”. In assay [1] (setting [7]), the “% of Control Activity” value is recorded as 36%.

As for `[Cl-].[Cl-].[Zn+2]` [ZnCl2], the “% of Control Activity” value in assay [1] (setting [7]) was determined as 100%. As for `OCC(O)CO` [Glycerol], the remaining activity at 1 % in assay [1] (solvent 1.0%) worked out at 100%. Further, the remaining activity at 5 % in assay [1] (solvent 5.0%) was determined as 94%. Moreover, in assay [1] (solvent 10.0%), the remaining activity at 10 % was 85% and the “% Residual enzyme activity” value was “least amount of inhibition”. For the molecule `CCCCCCC(C(=O)O)n1cnc(NC(=O)c2ccccc2-c2nn[nH]n2)c1` (stereo not drawn) [XXII], the “Relative Activity” value in assay [2] (setting [5]) is given as 0.2. In addition, the “suitability as substrate (in words)” value in assay [2] is reported as “Low levels of hydrolysis”.

`Nc1ncnc2c1ncn2[C@@H]1O[C@H](COP(=O)(O)OP(=O)(O)OP(=O)(O)O)[C@@H](O)[C@H]1O` [ATP, adenosine 5triphosphate]: in assay [1] (setting [3]), the remaining activity at 1000 µM was 96%. The same measure, in the same setting: as for `O[C@H](CS)[C@H](O)CS` (racemic) [DTT, dithiothreitol], the figure is 100%. Regarding `OCCS` [Mercaptoethanol], in assay [1] (setting [3]), the remaining activity at 1000 µM worked out at 105%.

Consider `[Cl][Mn][Cl]` [MnCl2], for which the “% of Control Activity” value in assay [1] (setting [7]) is reported as 84%. As for `NC(=O)c1ccc[n+]([C@@H]2O[C@H](COP(=O)([O-])OP(=O)(O)OC[C@H]3O[C@@H](n4cnc5c(N)ncnc54)[C@H](OP(=O)(O)O)[C@@H]3O)[C@@H](O)[C@H]2O)c1` [NADP, nicotinamide adenine dinucleotide phosphate], the remaining activity at 1000 µM in assay [1] (setting [3]) is 99%. Take `CCCCCCC(C(=O)O)n1cnc(NC(=O)c2ccccc2)c1` (stereo not drawn) [XXVIII]: in assay [2] (setting [5]), the “Relative Activity” value was 0.
